Like-named read-outs stand apart in the source and are kept apart here.
Tests used:
[1] = molecular target: T1, human type 3 17β-hydroxysteroid dehydrogenase (Homo sapiens, UniProt P37058); assay: Enzymatic assay for type 3 17β-HSD; assay type: biochemical
T1 construct: expressed in transfected cells; host or cells: 293 cells, transient transfection; microsomal fraction (100 000×g pellet)
T1 sequence (P37058 1-310): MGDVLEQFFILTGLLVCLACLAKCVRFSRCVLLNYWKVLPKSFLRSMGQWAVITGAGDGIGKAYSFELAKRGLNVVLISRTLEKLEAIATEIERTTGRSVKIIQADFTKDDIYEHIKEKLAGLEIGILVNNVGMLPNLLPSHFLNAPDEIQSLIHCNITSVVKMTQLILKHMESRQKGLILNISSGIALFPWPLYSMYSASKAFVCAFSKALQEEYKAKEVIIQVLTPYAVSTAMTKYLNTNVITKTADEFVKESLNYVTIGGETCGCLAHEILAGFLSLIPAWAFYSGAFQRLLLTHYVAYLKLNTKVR
Excerpt: Enzymatic assay for types 1, 2, and 3 17β-HSD and types 1 and 3 3α-HSD”. Lower numbers of IC50 are desirable. Blank means that a determination was not done. The % of inhibition at the concentration of 3.10^−6M determined in preliminary screening test is reported in square braquets.
Enzyme sources. 293 cells transiently transfected with expression vectors encoding types 1, 2 and 3 17β-HSD (Luu-The et al., J. Steroid Biochem. Molec. Biol., 55: 581-587, 1995), types 1 and 2 5α-reductase (Luu-The et al., J. Invest. Dermatol., 102: 221-226, 1994) and types 1 and 3 3α-HSD (Dufort et al. Biochem. Biophys. Res. Commun. 228: 474-479, 1996), using the calcium phosphate procedure (Kingston et al., In: Current Protocols in Molecular Biology. Edited by E. M. Ausbel, R. Brent, R. E. Kingston, D. D. Moore, J. G. Seidman, J. A. Smith, K. Struhl. John Wiley & Sons, New York, pp. 9.1.1-9.1.9, 1991; Luu-The et al., J. Invest. Dermatol., 102: 221-226, 1994). For assays using cell subfractions, cells were sonicated in 50 mM sodium phosphate buffer (pH 7.4), containing 20% glycerol and 1 mM EDTA and centrifuged at 10 000×g for 30 min before centrifugation for 100 000×g for 1 h to separate the mitochondrial and microsomal fractions, respectively. The cytosol fractions (100 000×g supernatant) was used to determine type 1 activity while the microsomal fraction (pellet at 100 000×g) was used for measurement of types 2 and 3 17β-HSD activities.
Incubation. The enzymatic reaction was carried out at 37° C. in 1 ml of 50 mM sodium phosphate buffer, pH 7.4, containing 20% glycerol, 1 mM EDTA, and 2 mM cofactors (NADPH or AND^+) for 1 h in the presence of 0.1 μM ^14C-labeled substrate: estrone and 4-dione for types 1 and […] 17β-HSD, respectively, testosterone for type 2 17β-HSD as well as types 1 and 2 5α-reductases, DHT for types 1 and 3 3α-HSD activities, and the indicated concentration of inhibitor.
Extraction of metabolites, migration on TLC and quantification were as described above for the assay of type 5 17β-HSD.

Compound	IC50 [1] [nM]	% of Inhibition of the Type 3 17β-HSD Activity ([1]; 3.10^−6 M inhibitor) [%]	% of Inhibition of the Type 3 17β-HSD Activity ([1]; 3.10^−7 M inhibitor) [%]	melting point [°C]	IC50 ([1]; Table 7, read-out: Inhibition of the Type 3 17β-HSD Activity IC50) [nM]
C[C@]12CC[C@](O)(Cc3ccccc3)C[C@@H]1CC[C@@H]1[C@@H]2CC[C@]2(C)C(=O)CC[C@@H]12 [CS-213, 3β-benzyl-3α-Hydroxy-5α-androstane-17-one]	31 ± 4				
COCSc1ccc2c(c1)CC[C@@H]1[C@@H]2CC[C@]2(C)C(=O)CC[C@@H]12 [EM-1064, 3-Methoxymethylthio-Estra-1,3,5(10)-trien-17-one]		92	62	55	
CSCCSc1ccc2c(c1)CC[C@@H]1[C@@H]2CC[C@]2(C)C(=O)CC[C@@H]12 [EM-1065, 3-Methylthioethylthio-Estra-1,3,5(10)-trien-17-one]		94	63	74	
CSCOc1ccc2c(c1)CC[C@@H]1[C@@H]2CC[C@]2(C)C(=O)CC[C@@H]12 [EM-1066, 3-Methylthiomethyloxy-1,3,5(10)-estratrien-17-one]		93	63		
COCOc1ccc2c(c1)CC[C@@H]1[C@@H]2CC[C@]2(C)C(=O)CC[C@@H]12 [EM-1070, 3-Methyloxymethyloxy-1,3,5(10)-estratrien-17-one]		90	57		
CCOCCOc1ccc2c(c1)CC[C@@H]1[C@@H]2CC[C@]2(C)C(=O)CC[C@@H]12 [EM-1071, 3-Ethyloxyethyloxy-1,3,5(10)-estratrien-17-one]		91	73		
COCCOc1ccc2c(c1)CC[C@@H]1[C@@H]2CC[C@]2(C)C(=O)CC[C@@H]12 [EM-1073, 3-Methyloxyethyloxy-1,3,5(10)-estratrien-17-one]		87	51		
CCCCOc1ccc2c(c1)CC[C@@H]1[C@@H]2CC[C@]2(C)C(=O)CC[C@@H]12 [EM-1074, 3-Butyloxy-1,3,5(10)-estratrien-17-one]		92	62		
C[C@]12CC[C@](O)(CCc3ccccc3)C[C@@H]1CC[C@@H]1[C@@H]2CC[C@]2(C)C(=O)CC[C@@H]12 [EM-1324-CS, 3α-hydroxy-3β-phenylethyl-5α-androstane-17-one]					31 ± 4
C[C@]12CC[C@@H](O)C[C@@H]1CC[C@@H]1[C@@H]2CC[C@]2(C)C(=O)CC[C@@H]12 [androsterone, reference compound]	200				
